Values quoted from earlier work as cited in patent US11622994B2, “Therapy for vitiligo” (Clinuvel Pharmaceuticals Limited, priority 2008, dated 2023).

Experiments:
[1] = test system: cultured human keratinocytes; conditions: versus native alpha-MSH
[2] = test system: frog skin; conditions: frog skin bioassay; versus native alpha-MSH
[3] = test system: human volunteers

Nle^4-D-Phe^7-alpha-MSH
potency relative to the native hormone at inducing pigmentation [1]: 10 to 1,000 fold
potency relative to the native hormone at inducing pigmentation [2]: 10 to 1,000 fold
melanin synthesis [3]: can induce melanin synthesis
